≈ marks a conversion by molar mass, not a printed value. Calls of active or inactive are those of the source. The calls are words filed in the database; no cut-off is given here.
Columns and labels:
Streptococcus sanguinis = assay: Antibacterial activity against Streptococcus sanguis after 48 hrs by spectrophotometry; assay type: functional
Streptococcus mutans = assay: Antibacterial activity against Streptococcus mutans Ingbritt after 48 hrs by spectrophotometry; assay type: functional
Porphyromonas gingivalis = assay: Antibacterial activity against Porphyromonas gingivalis after 48 hrs by spectrophotometry; assay type: functional
Prevotella intermedia = assay: Antibacterial activity against Prevotella intermedia after 48 hrs by spectrophotometry; assay type: functional, organism-based

Row | MIC (Streptococcus sanguinis) [µg/mL] | MIC (Streptococcus mutans) [µg/mL] | MIC (Porphyromonas gingivalis) [µg/mL] | Compound | Activity (Porphyromonas gingivalis) | Activity (Prevotella intermedia)
1 | 1 (≈ 1.02 µM) | 1 (≈ 1.02 µM) |  | CC1=C2c3c(C)cc(O)c4c(O[C@@H]5O[C@H](CO[C@@H]6OC[C@@H](O)[C@H](O)[C@H]6O)[C@@H](O)[C@H](O)[C@H]5O)ccc(c34)OC2(O)c2c(O[C@@H]3O[C@H](CO[C@@H]4OC[C@@H](O)[C@H](O)[C@H]4O)[C@@H](O)[C@H](O)[C@H]3O)ccc(O)c2C1=O (stereo not given in full) | inactive | inactive
2 | 1 (≈ 1.18 µM) | 1 (≈ 1.18 µM) |  | CC1=C2c3c(C)cc(O)c4c(O[C@@H]5O[C@H](CO[C@@H]6OC[C@@H](O)[C@H](O)[C@H]6O)[C@@H](O)[C@H](O)[C@H]5O)ccc(c34)OC2(O)c2c(O[C@@H]3O[C@H](CO)[C@@H](O)[C@H](O)[C@H]3O)ccc(O)c2C1=O (stereo not given in full) | inactive | inactive
3 |  | 15 | 15 | C[n+]1cc2c3c(ccc2c2ccc4cc5c(cc4c21)OCO5)OCO3 [SANGUINARIUM] |  | 

Reference: ChEMBL document CHEMBL1150910, “Binaphthalenone glycosides from African chewing sticks, Diospyros lycioides” (1998)
